Laboratory results: patent US9725437B2, “Fatty acid synthase inhibitors” (GlaxoSmithKline Intellectual Property (No.2) Limited, priority 2013, dated 2017)

Assays:
[1] = Rat pharmacokinetic study (iv clearance, oral exposure); format: in vivo; settings: for Rat iv CI: in vivo clearance, average of 1 to 4 animals; for Rat po DNAUC: dose-normalized AUC, 2-3 animals per experiment
Protocol: (§1) Mouse and rat pharmacokinetic studies were performed generally as described in Xiang et al. (Preclinical drug metabolism and pharmacokinetic evaluation of GW844520, a novel mitochondrial electron transport inhibitor. H Xiang, J McSurdy-Freed, G Subbanagounder, E Hugger, R Bambal, C Han, S Ferrar, D Gargallo and CB Davis. (2006) Journal of Pharmaceutical Sciences, 95:2657-2672) and Davis et al. (Comparative preclinical drug metabolism and pharmacokinetic evaluation of novel 4-aminoquinoline anti-malarials. C B Davis, R Bambal, G S Moorthy, E Hugger, H Xiang, B Kevin Park, A E Shone, P M O'Neill and S A Ward (2009) Journal of Pharmaceutical Sciences, 98:362-377) with the following exceptions. For some mouse studies, cannulated animals were used and serial blood samples were collected from the individuals (n=2/compound/route of administration) as opposed to using a composite study design. In some iv rat studies, drugs were infused for 1 or 2 h and a single blood sample collected to estimate clearance assuming steady-state conditions (n=2/compound). This assay was employed as an initial PK screen to prioritize compounds for further study.
(§2) Rodent pharmacokinetic (PK) data were collected on the exemplified compounds according to the methods described above. In vivo clearance (Cl) data are reported as the average of 1 to 4 animals across 1 to 2 experiments and are categorized as follows. In rats, a ‘low’ clearance is designated as <17 mL/min/kg, a ‘moderate’ clearance is designated as 17-39 mL/min/kg, and a ‘high’ clearance is designated as >39 mL/min/kg. In mice, a ‘low’ clearance is designated as <30 mL/min/kg, a ‘moderate’ clearance is designated as 30-70 mL/min/kg, and a ‘high’ clearance is designated as >70 mL/min/kg. In vivo oral exposure (po) data, reported as average dose-normalized AUCs (DNAUC) per experiment of 2-3 animals, are categorized as ‘poor’ for DNAUC ≦101 ng·h/mL/mg/kg and ‘good’ for DNAUC >101 ng·h/mL/mg/kg. When multiple experiments were performed under different conditions, the totality of the data was considered. In cases where both ‘poor’ and ‘good’ oral exposures were observed, a designation of ‘mixed’ is utilized to represent mixed and unoptimized results.

[2] = Mouse pharmacokinetic study (iv clearance, oral exposure); format: in vivo; set-up: key to Mouse po DNAUC: ‘poor’ for DNAUC ≦101 ng·h/mL/mg/kg; ‘good’ for DNAUC >101 ng·h/mL/mg/kg; In cases where both ‘poor’ and ‘good’ oral exposures were observed, a designation of ‘mixed’ is utilized; settings: for Mouse iv CI: in vivo clearance, average of 1 to 4 animals; for Mouse po DNAUC: dose-normalized AUC, 2-3 animals per experiment
Protocol: as §1, §2

Row | SMILES | Rat iv CI [1] | Rat po DNAUC [1] | Mouse iv CI [2] | Mouse po DNAUC [2]
1 | O=C(C1CC1)N1CC[C@@H](Cc2n[nH]c(=O)n2-c2ccc(-c3ccc4cc(Cl)cnc4c3)cc2F)C1 [Example 2, (S)-4-(4-(3-chloroquinolin-7-yl)-2-fluorophenyl)-3-((1-(cyclopropanecarbonyl)pyrrolidin-3-yl)methyl)-1H-1,2,4-triazol-5(4H)-one] | moderate (a ‘moderate’ clearance is designated as 17-39 mL/min/kg) | good (‘good’ for DNAUC >101 ng·h/mL/mg/kg) | low (In mice, a ‘low’ clearance is designated as <30 mL/min/kg) | good (‘good’ for DNAUC >101 ng·h/mL/mg/kg)
2 | CCC(=O)N1CC[C@@H](Cc2nn(C)c(=O)n2-c2ccc(-c3ccc4cc(C)cnc4c3)cc2F)C1 [Example 7, (S)-4-(2-fluoro-4-(3-methylquinolin-7-yl)phenyl)-1-methyl-3-((1-propionylpyrrolidin-3-yl)methyl)-1H-1,2,4-triazol-5(4H)-one] | low (In rats, a ‘low’ clearance is designated as <17 mL/min/kg) | good (‘good’ for DNAUC >101 ng·h/mL/mg/kg) | low (In mice, a ‘low’ clearance is designated as <30 mL/min/kg) | good (‘good’ for DNAUC >101 ng·h/mL/mg/kg)
3 | CCC(=O)N1CC[C@@H](Cc2n[nH]c(=O)n2-c2ccc(-c3ccc4cc(F)cnc4c3)cc2F)C1 [Example 4, (S)-4-(2-fluoro-4-(3-fluoroquinolin-7-yl)phenyl)-3-((1-propionylpyrrolidin-3-yl)methyl)-1H-1,2,4-triazol-5(4H)-one] | low (In rats, a ‘low’ clearance is designated as <17 mL/min/kg) | poor (‘poor’ for DNAUC ≦101 ng·h/mL/mg/kg) | low (In mice, a ‘low’ clearance is designated as <30 mL/min/kg) | good (‘good’ for DNAUC >101 ng·h/mL/mg/kg)
4 | CCC(=O)N1CC[C@@H](Cc2nn(C)c(=O)n2-c2ccc(-c3ccc4cc(F)cnc4c3)cc2F)C1 [Example 10, (S)-4-(2-fluoro-4-(3-fluoroquinolin-7-yl)phenyl)-1-methyl-3-((1-propionylpyrrolidin-3-yl)methyl)-1H-1,2,4-triazol-5(4H)-one] | low (In rats, a ‘low’ clearance is designated as <17 mL/min/kg) | – | low (In mice, a ‘low’ clearance is designated as <30 mL/min/kg) | –
5 | CCC(=O)N1CC[C@@H](Cc2nn(C)c(=O)n2-c2ccc(-c3ccc4cc(Cl)cnc4c3)cc2F)C1 [Example 8, (S)-4-(4-(3-chloroquinolin-7-yl)-2-fluorophenyl)-1-methyl-3-((1-propionylpyrrolidin-3-yl)methyl)-1H-1,2,4-triazol-5(4H)-one] | low (In rats, a ‘low’ clearance is designated as <17 mL/min/kg) | good (‘good’ for DNAUC >101 ng·h/mL/mg/kg) | low (In mice, a ‘low’ clearance is designated as <30 mL/min/kg) | good (‘good’ for DNAUC >101 ng·h/mL/mg/kg)
6 | CCC(=O)N1CC[C@@H](Cc2n[nH]c(=O)n2-c2ccc(-c3ccc4cc(C)cnc4c3)cc2F)C1 [Example 5, (S)-4-(2-fluoro-4-(3-methylquinolin-7-yl)phenyl)-3-((1-propionylpyrrolidin-3-yl)methyl)-1H-1,2,4-triazol-5(4H)-one] | low (In rats, a ‘low’ clearance is designated as <17 mL/min/kg) | good (‘good’ for DNAUC >101 ng·h/mL/mg/kg) | low (In mice, a ‘low’ clearance is designated as <30 mL/min/kg) | mixed
7 | Cn1nc(C[C@@H]2CCN(C(=O)C3CC3)C2)n(-c2ccc(-c3ccc4cc(Cl)cnc4c3)cc2F)c1=O [Example 9, (S)-4-(4-(3-chloroquinolin-7-yl)-2-fluorophenyl)-3-((1-(cyclopropanecarbonyl)pyrrolidin-3-yl)methyl)-1-methyl-1H-1,2,4-triazol-5(4H)-one] | moderate (a ‘moderate’ clearance is designated as 17-39 mL/min/kg) | good (‘good’ for DNAUC >101 ng·h/mL/mg/kg) | low (In mice, a ‘low’ clearance is designated as <30 mL/min/kg) | –
8 | CCC(=O)N1CC[C@@H](Cc2n[nH]c(=O)n2-c2ccc(-c3ccc4cccnc4c3)cc2F)C1 [#196 from WO2011/103546A1, 4-[2-fluoro-4-(7-quinolinyl)phenyl]-5-{[(3S)-1-propanoyl-3-pyrrolidinyl]methyl}-2,4-dihydro-3H-1,2,4-triazol-3-one, reference compound] | moderate (a ‘moderate’ clearance is designated as 17-39 mL/min/kg) | poor (‘poor’ for DNAUC ≦101 ng·h/mL/mg/kg) | moderate (a ‘moderate’ clearance is designated as 30-70 mL/min/kg) | poor (‘poor’ for DNAUC ≦101 ng·h/mL/mg/kg)
9 | O=C(C1CC1)N1CC[C@@H](Cc2n[nH]c(=O)n2-c2ccc(-c3ccc4cccnc4c3)cc2F)C1 [#124 from WO2011/103546A1, 5-{[(3S)-1-(cyclopropylcarbonyl)-3-pyrrolidinyl]methyl}-4-[2-fluoro-4-(7-quinolinyl)phenyl]-2,4-dihydro-3H-1,2,4-triazol-3-one, reference compound] | high (a ‘high’ clearance is designated as >39 mL/min/kg) | poor (‘poor’ for DNAUC ≦101 ng·h/mL/mg/kg) | moderate (a ‘moderate’ clearance is designated as 30-70 mL/min/kg) | poor (‘poor’ for DNAUC ≦101 ng·h/mL/mg/kg)
10 | Cc1cnc2cc(-c3ccc(-n4c(C[C@@H]5CCN(C(=O)C6CC6)C5)n[nH]c4=O)c(F)c3)ccc2c1 [Example 1, (S)-3-((1-(cyclopropanecarbonyl)pyrrolidin-3-yl)methyl)-4-(2-fluoro-4-(3-methylquinolin-7-yl)phenyl)-1H-1,2,4-triazol-5(4H)-one] | moderate (a ‘moderate’ clearance is designated as 17-39 mL/min/kg) | poor (‘poor’ for DNAUC ≦101 ng·h/mL/mg/kg) | low (In mice, a ‘low’ clearance is designated as <30 mL/min/kg) | good (‘good’ for DNAUC >101 ng·h/mL/mg/kg)
11 | CCC(=O)N1CC[C@@H](Cc2n[nH]c(=O)n2-c2ccc(-c3ccc4cc(Cl)cnc4c3)cc2F)C1 [Example 6, (S)-4-(4-(3-chloroquinolin-7-yl)-2-fluorophenyl)-3-((1-propionylpyrrolidin-3-yl)methyl)-1H-1,2,4-triazol-5(4H)-one] | moderate (a ‘moderate’ clearance is designated as 17-39 mL/min/kg) | good (‘good’ for DNAUC >101 ng·h/mL/mg/kg) | low (In mice, a ‘low’ clearance is designated as <30 mL/min/kg) | mixed
12 | O=C(C1CC1)N1CC[C@@H](Cc2n[nH]c(=O)n2-c2ccc(-c3ccc4cc(F)cnc4c3)cc2F)C1 [Example 3, (S)-3-((1-(cyclopropanecarbonyl)pyrrolidin-3-yl)methyl)-4-(2-fluoro-4-(3-fluoroquinolin-7-yl)phenyl)-1H-1,2,4-triazol-5(4H)-one] | moderate (a ‘moderate’ clearance is designated as 17-39 mL/min/kg) | – | – | –
